Data published in patent US12171756B2, “NLRP3 modulators” (Innate Tumor Immunity, Inc., priority 2017, dated 2024).
Like-named read-outs stand apart in the source and are kept apart here.

Key:
[1] = test system: IL-1β production in PMA-differentiated THP-1 cells; assay: Measurement of IL-1β production in PMA-differentiated THP-1 cells (ELISA, 4 hours); assay type: cell-based, human; settings: assayed using one or more of the described procedures, read-out: NLRP3 hIL1B IC50
Method in brief: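 IL-1β released into supernatant was measured by ELISA after a 4-hour compound exposure (final DMSO 1%, concentrations such as 100 down to 0.1 μM). Cells: THP-1 pretreated 24 h with 10 μg/ml PMA, then trypsinized and seeded at 1×10^6/ml in 2% FBS RPMI.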

[2] = biological target: T1, human TLR7 (Homo sapiens, UniProt Q9NYK1); assay: In vitro human TLR7 binding reporter assay (HEK-Blue, NF-kB/AP1-inducible SEAP); assay type: cell-based; settings: HEK-Blue human TLR7 SEAP reporter cells; activity range classes; read-out: TLR7 Agonist EC50
T1 construct: host or cells: human HEK-Blue cells (HEK293-derived) co-expressing TLR7 and an NF-kB/AP1-inducible SEAP reporter
T1 sequence (Q9NYK1 27-1049): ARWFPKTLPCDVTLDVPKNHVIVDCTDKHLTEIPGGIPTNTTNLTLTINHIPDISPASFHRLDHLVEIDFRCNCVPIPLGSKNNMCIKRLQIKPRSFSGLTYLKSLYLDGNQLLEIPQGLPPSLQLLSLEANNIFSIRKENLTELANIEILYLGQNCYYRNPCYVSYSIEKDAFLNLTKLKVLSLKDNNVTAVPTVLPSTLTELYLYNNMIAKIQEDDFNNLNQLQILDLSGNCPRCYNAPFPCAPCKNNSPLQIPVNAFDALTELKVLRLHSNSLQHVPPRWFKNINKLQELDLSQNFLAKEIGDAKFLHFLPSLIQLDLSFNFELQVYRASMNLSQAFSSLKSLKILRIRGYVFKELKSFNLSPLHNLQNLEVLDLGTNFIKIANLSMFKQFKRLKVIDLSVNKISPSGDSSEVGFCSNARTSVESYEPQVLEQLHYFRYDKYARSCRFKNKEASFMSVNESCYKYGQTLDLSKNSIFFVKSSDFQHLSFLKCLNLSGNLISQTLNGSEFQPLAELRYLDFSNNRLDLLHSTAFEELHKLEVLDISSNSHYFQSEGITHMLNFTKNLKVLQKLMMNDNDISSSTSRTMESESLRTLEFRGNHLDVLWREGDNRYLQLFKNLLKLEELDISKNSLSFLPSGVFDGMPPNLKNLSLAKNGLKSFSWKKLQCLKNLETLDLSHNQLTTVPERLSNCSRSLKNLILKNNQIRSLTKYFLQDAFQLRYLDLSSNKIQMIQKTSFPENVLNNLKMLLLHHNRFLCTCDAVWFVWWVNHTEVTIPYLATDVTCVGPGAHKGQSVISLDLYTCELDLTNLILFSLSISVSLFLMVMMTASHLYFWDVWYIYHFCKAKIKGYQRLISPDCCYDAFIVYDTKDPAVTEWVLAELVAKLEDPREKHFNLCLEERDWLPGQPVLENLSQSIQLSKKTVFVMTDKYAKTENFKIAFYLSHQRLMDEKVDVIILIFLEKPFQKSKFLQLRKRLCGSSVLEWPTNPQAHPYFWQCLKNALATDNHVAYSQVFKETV
Method in brief: (§1)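 EC50s come from NF-kB/AP1-driven SEAP secretion in HEK-Blue cells expressing TLR7 or TLR8, measured with Quanti-Blue after an 18 h compound incubation. Maximal response is defined by a 50 μM reference standard.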

[3] = biological target: T2, human TLR8 (Homo sapiens, UniProt Q9NR97); assay: In vitro human TLR8 binding reporter assay (HEK-Blue, NF-kB/AP1-inducible SEAP); assay type: cell-based; settings: HEK-Blue human TLR8 SEAP reporter cells; activity range classes; read-out: TLR8 Agonist EC50
T2 construct: host or cells: human HEK-Blue cells (HEK293-derived) co-expressing TLR8 and an NF-kB/AP1-inducible SEAP reporter
T2 sequence (Q9NR97 27-1041): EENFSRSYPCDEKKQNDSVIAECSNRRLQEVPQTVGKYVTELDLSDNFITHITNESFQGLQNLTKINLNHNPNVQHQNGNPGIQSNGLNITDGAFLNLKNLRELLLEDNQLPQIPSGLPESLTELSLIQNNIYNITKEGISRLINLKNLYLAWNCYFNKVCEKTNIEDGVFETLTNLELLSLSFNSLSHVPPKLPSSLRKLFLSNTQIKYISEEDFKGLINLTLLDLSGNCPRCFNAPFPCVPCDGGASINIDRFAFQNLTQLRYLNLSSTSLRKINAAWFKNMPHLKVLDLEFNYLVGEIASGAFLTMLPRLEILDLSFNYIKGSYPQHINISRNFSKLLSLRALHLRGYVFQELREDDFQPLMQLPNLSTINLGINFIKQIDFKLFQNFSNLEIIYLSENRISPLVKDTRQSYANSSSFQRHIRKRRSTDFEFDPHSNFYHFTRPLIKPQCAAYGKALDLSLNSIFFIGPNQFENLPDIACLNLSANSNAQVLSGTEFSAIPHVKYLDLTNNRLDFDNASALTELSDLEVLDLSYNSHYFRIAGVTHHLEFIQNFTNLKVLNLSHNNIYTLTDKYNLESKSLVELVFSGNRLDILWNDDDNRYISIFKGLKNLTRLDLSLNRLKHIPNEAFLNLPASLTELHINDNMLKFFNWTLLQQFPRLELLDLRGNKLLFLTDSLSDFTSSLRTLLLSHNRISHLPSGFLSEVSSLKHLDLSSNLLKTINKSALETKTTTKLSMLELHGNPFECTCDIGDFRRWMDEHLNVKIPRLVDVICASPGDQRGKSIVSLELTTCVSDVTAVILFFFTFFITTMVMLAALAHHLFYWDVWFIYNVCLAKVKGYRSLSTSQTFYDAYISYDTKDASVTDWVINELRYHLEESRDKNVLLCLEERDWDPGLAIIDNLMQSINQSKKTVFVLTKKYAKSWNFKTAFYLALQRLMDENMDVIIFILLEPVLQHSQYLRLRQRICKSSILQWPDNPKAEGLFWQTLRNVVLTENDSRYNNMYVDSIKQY
Method in brief: as §1

[4] = Homo sapiens, THP-1, human IL-1β production

Row | IC50 [1, 4] | EC50 [2] | EC50 [3] | IC50 ([1]; human IL-1β production) | SMILES
1 | 1.6 µM | > 100 µM | > 100 µM |  | Nc1nc2cc(-c3cc[nH]n3)ccc2cc1CCCO [Compound 103, 3-[2-amino-7-(1H-pyrazol-3-yl)quinolin-3-yl]propan-1-ol]
2 | 0.09 µM | > 100 µM | > 100 µM |  | Nc1cc(N[C@H]2C[C@H](O)C2)c2ccc(-c3ccn[nH]3)cc2n1 [Compound 233]
3 | 0.32 µM | > 100 µM | > 100 µM |  | Nc1cc(NCc2cccc(F)c2)c2ccc(-c3ccn[nH]3)cc2n1 [Compound 260]
4 | 2.87 µM | > 100 µM | > 100 µM |  | CN(Cc1cc[nH]n1)c1cc(N)nc2cc(-c3ccn[nH]3)ccc12 [Compound 263]
5 | 0.14 µM | > 100 µM | > 100 µM |  | Cc1nc(CNc2cc(N)nc3cc(-n4cccn4)ccc23)cs1 [Compound 303]
6 | 0.62 µM | > 100 µM | > 100 µM |  | Nc1cc(NCCc2cccnn2)c2ccc(-c3ccsc3)cc2n1 [Compound 341, N4-(2-(pyridazin-3-yl)ethyl)-7-(thiophen-3-yl)quinolin-2,4-diamine]
7 | 5.66 µM | > 100 µM | > 100 µM |  | Nc1cc(N[C@H]2CC[C@H](O)CC2)c2ccc(-c3ccn[nH]3)cc2n1 [Compound 282]
8 | 11.9 µM | > 100 µM | > 100 µM |  | COCc1cc2ccc(-c3ccn[nH]3)cc2nc1N [Compound 113, 3-(methoxymethyl)-7-(1H-pyrazol-5-yl)quinolin-2-amine]
9 | 0.05 µM | > 100 µM | > 100 µM |  | Nc1cc(NCc2ncco2)c2ccc(-c3ccn[nH]3)cc2n1 [Compound 249]
10 | 0.13 µM | > 100 µM | > 100 µM |  | Nc1cc(NCCc2cnc[nH]2)c2ccc(-c3ccn[nH]3)cc2n1 [Compound 225]
11 | 1.59 µM | > 100 µM | > 100 µM |  | Cn1ncnc1COc1cc(N)nc2cc(-c3ccn[nH]3)ccc12 [Compound 312]
12 | 0.33 µM | > 100 µM | > 100 µM |  | Nc1cc(N[C@@H]2CC[C@@H](O)C2)c2ccc(-c3ccn[nH]3)cc2n1 [Compound 248]
13 |  | > 100 µM | > 100 µM | 11.6 µM | Nc1cc(NC2CCNC2)c2ccc(-c3ccn[nH]3)cc2n1 (stereo in doubt) [Compound 321, (S)-7-(1H-pyrazol-3-yl)-N4-(pyrrolidin-3-yl)quinoline-2,4-diamine]
14 | 0.52 µM | > 100 µM | > 100 µM |  | Nc1cc(N[C@@H]2CCOC2)c2ccc(-c3ccn[nH]3)cc2n1 [Compound 276]
15 | 0.56 µM | > 100 µM | > 100 µM |  | CCOCCOc1cc(N)nc2cc(-c3ccn[nH]3)ccc12 [Compound 185]
16 | 0.37 µM | > 100 µM | > 100 µM |  | Nc1cc(N[C@@H]2CCCC[C@@H]2O)c2ccc(-c3ccn[nH]3)cc2n1 [Compound 251]

Row | IC50 [1, 4] | EC50 [2] | EC50 [3] | IC50 ([1]; human IL-1β production) | SMILES
17 | 4.19 µM | > 100 µM | > 100 µM |  | Nc1cc(NCCC(=O)N2CCOCC2)c2ccc(-c3ccn[nH]3)cc2n1 [Compound 350, 3-((2-amino-7-(1H-pyrazol-5-yl)quinolin-4-yl)amino)-1-morpholinopropan-1-one]
18 | 0.39 µM | > 100 µM | > 100 µM |  | Nc1cc(N[C@H]2CCCOC2)c2ccc(-c3ccn[nH]3)cc2n1 [Compound 288]
19 | 0.31 µM | > 100 µM | > 100 µM |  | Nc1cc(N[C@@H]2CCC[C@@H]2O)c2ccc(-n3cccn3)cc2n1 [Compound 295]
20 | 0.37 µM | > 100 µM | > 100 µM |  | Nc1cc(N[C@H]2CCC[C@H]2O)c2ccc(-n3cccn3)cc2n1 [Compound 304]
21 | 0.52 µM | > 100 µM | > 100 µM |  | Nc1cc(OC[C@H](O)CO)c2ccc(-c3ccn[nH]3)cc2n1 [Compound 221]
22 | 0.85 µM | > 100 µM | > 100 µM |  | Nc1cc(OCC2CCOCC2)c2ccc(-c3ccn[nH]3)cc2n1 [Compound 187]
23 | 4.61 µM | > 100 µM | > 100 µM |  | CN(C)C(=O)NCCCNc1cc(N)nc2cc(-c3ccn[nH]3)ccc12 [Compound 214, 3-(3-((2-amino-7-(1H-pyrazol-5-yl)quinolin-4-yl)amino)propyl)-1,1-dimethylurea, 2TFA]
24 | 7.37 µM | > 100 µM | > 100 µM |  | CC(C)(C)OC(=O)N1CC(Nc2cc(N)nc3cc(-c4ccn[nH]4)ccc23)C1 [Compound 270]
25 | 1.31 µM | > 100 µM | > 100 µM |  | Nc1cc(NC2CCOCC2)c2ccc(-c3ccn[nH]3)cc2n1 [Compound 278]
26 | 2.62 µM | > 100 µM | > 100 µM |  | Nc1cc(OCC2(CO)CCC2)c2ccc(-c3cccs3)cc2n1 [Compound 334, (1-(((2-amino-7-(thiophen-2-yl)quinolin-4-yl)oxy)methyl)cyclobutyl)methanol]
27 | 0.7 µM | > 100 µM | > 100 µM |  | Nc1cc(OCCO)c2ccc(-c3ccn[nH]3)cc2n1 [Compound 178, 2-((2-amino-7-(1H-pyrazol-5-yl)quinolin-4-yl)oxy)ethan-1-ol]
28 | 3.13 µM | > 100 µM | > 100 µM |  | Cn1nncc1COc1cc(N)nc2cc(-c3ccn[nH]3)ccc12 [Compound 311]
29 | 1.64 µM | > 100 µM | > 100 µM |  | CCNCCCc1cc2ccc(-c3cc[nH]n3)cc2nc1N [Compound 110, 3-[3-(ethylamino)propyl]-7-(1H-pyrazol-3-yl)quinolin-2-amine]
30 | 0.39 µM | > 100 µM | > 100 µM |  | Nc1cc(OCc2ccccn2)c2ccc(-c3ccn[nH]3)cc2n1 [Compound 189]
31 | 0.27 µM | > 100 µM | > 100 µM |  | CNc1cc(N)nc2cc(-c3ccn[nH]3)ccc12 [Compound 253]
32 | 1.69 µM | > 100 µM | > 100 µM |  | Cn1cncc1CNc1cc(N)nc2cc(-c3ccn[nH]3)ccc12 [Compound 252]
